{"source": "patent US20100221709A1", "about": "“METHODS FOR IDENTIFYING AGENTS THAT MODULATE APOPTOSIS IN CELLS THAT OVER-EXPRESS A BCL-2 FAMILY MEMBER PROTEIN” (priority 2005, published 2010)", "key": {"[1]": {"tested_on": "TABX2S cells (over-expressing Bcl-xL)", "test": "in vitro", "excerpt": "(§1) Briefly, a DNA fragment encoding the full-length mouse Bcl-xL cDNA was isolated from the plasmid pBS-BCL-xL (Tzung et al., Am. J. Path. 150:1985-1995 (1997), incorporated herein by reference in its entirety) by digestion with the restriction endonuclease EcoRI. This EcoRI fragment was cloned into the EcoRI site of the mammalian expression vector pSFFV (Fuhlbrigge et al., Proc. Nat. Acad. Sci. USA 85:5649-5653 (1988)) in both sense and antisense orientations, to form expression plasmids pSFFV-Bc/-xL-WT(sense) or pSFFV-Bc/-xL(antisense), respectively. The tumorigenic murine hepatocyte cell line TAMH was transfected by lipofection (Lipofectamine, Life Technologies, Rockville, Md., according to the manufacturer's recommendations) with the plasmids pSFFV-neo (the control), pSFFV-Bc/-xL-WT(sense) or pSFFV-Bc/-xL(antisense). Characterization of and culture conditions for the cell lines have been previously published (Wu et al., Proc. Nat. Acad. Sci. USA 91:674-78 (1994); Wu et al., Cancer Res. 54:5964-5973 (1994)). Transfectants were selected for the acquisition of neomycin resistance by growing cells in the presence of 750 μg/ml of G418. Bulk transfectants were cloned by limiting dilution and individual clones were screened by immunoblot analysis to determine the level of Bcl-xL, protein expression as described below.\n(§2) Selected transfectants were then tested for whole cell sensitivity to several apoptotic agents. Transfected cells were cultured to reach approximately 80% confluency prior to plating an equal number of cells from selected clones on 12-well tissue culture plates. The transplanted cells were treated with the following apoptotic agents: 5 μM doxorubicin for 48 hours; 5 μM cisplatin for 48 hours; or with 200 U/ml tumor necrosis factor (TNF) plus 1 μg/ml actinomycin D for 18 hours. Cell viability was determined by trypan blue dye exclusion. The percentage of viable cells was calculated by the number of viable cells (treated with a particular apoptogenic agent) divided by the number in the control group (untreated).\n(§3) TABX2S cells and TABX1A cells were also examined for the effects of various mitochondrial inhibitors. […] Azide was diluted from an aqueous stock solution."}, "[2]": {"tested_on": "myeloma cell lines (RPMI-8226, U266, NCI-H929)", "assay_type": "cell-based, human", "experimental": "Cell survival was assayed by exclusion of propidium iodide (PI) (10 mg/ml) by unfixed cells. Annexin V-FITC (Pharmingen) or 3,3′-dihexyloxacarbocyanine iodide (DiOC6(3)) (Molecular Probes) staining was analyzed together with PI to discriminate early apoptotic cells. Apoptotic cells were also measured as sub-G1 events among ethanol-fixed cells stained with […] PI. All cell samples were analyzed using a benchtop FACSCalibur® (Becton Dickinson, San Jose, Calif.) flow cytometer. Flow data were analyzed using MultiCycle AV software (Phoenix Flow Systems). For intracellular pH measurements, cell pellets were washed once and resuspended in 2 ml of HEPES-buffered medium (no phenol red and no serum). Carboxy-SNARF®-1 acetoxymethyl (AM) ester (Molecular Probes, 1 mM stock in DMSO, stored at −20° C.), a long wavelength fluorescent pH indicator, was added to a final concentration of 10 μM, and the cells were incubated for 30 min at 37° C. Following incubation with SNARF®-1 AM, cells were sedimented and the pellets were held on ice. Immediately before analysis, pellets were resuspended in Earle's balanced salt solution (experimental buffer) or high-[K^+] buffer containing nigericin (calibration samples)."}, "in vitro": {"test": "in vitro", "settings": "mouse", "excerpt": "as §1, §2, §3"}, "[3]": {"test": "Cell viability by trypan blue dye exclusion", "settings": "mouse", "excerpt": "as §1\nas §2, with “(untreated). […]” for “(untreated).”"}, "[4]": {"biological_target": "T1, recombinant Bcl-2 (Bcl-2ΔC22) (Homo sapiens, UniProt P10415)", "T1 construct": "poly-His (N); made in house", "T1 sequence (P10415 1-217 limits assumed, stated change not applied)": "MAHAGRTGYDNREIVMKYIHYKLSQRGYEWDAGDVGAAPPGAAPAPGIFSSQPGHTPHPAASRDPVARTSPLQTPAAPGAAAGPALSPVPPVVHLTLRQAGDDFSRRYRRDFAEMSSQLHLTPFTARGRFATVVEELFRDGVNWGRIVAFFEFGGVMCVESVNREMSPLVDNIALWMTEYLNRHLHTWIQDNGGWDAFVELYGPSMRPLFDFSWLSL", "test": "Antimycin A3 fluorescence binding and competitive displacement assay", "settings": "antimycin A3 2 μM, competitor 2 μM, Bcl-2 3 μM", "experimental": "In this assay, 0 to 5 μM antimycin A3 (Sigma Chemical Co., St. Louis, Mo.) was added to a physiological buffer (50 mM Tris-HCl pH 8.0, 0.2 M NaCl, 2 mM EDTA, 0.5% v/v glycerol) containing recombinant Bcl-2 or Bcl-xL protein under conditions that permitted antimycin A3 to bind to the BH3-binding domain of Bcl-2 or Bcl-xL, (22.5° C. on a Hitachi F-2500 fluorescence spectrofluorimeter equipped with a thermostatted cell holder). […] The excitation wavelength was 335 nm, and the maximum emission wavelength for antimycin A3 was 428 nm with a slit width of 10 nm. The samples were mixed in a quartz cuvette and checked for inner filter effect over the range of antimycin A3 for this study. […]\nRecombinant human Bcl-2ΔC22 (a recombinant human […] lacking the C-terminal 22-amino acid residue membrane anchor sequence) and mouse Bcl-xLΔC20 (a murine Bcl-xL lacking the C terminal 20-amino acid residue membrane anchor sequence) fused with poly-His at the N-terminus were chromatographically purified to homogeneity. The concentrations of antimycin A3 and stock solutions of recombinant proteins were quantitated using an extinction coefficient of 7.24/mM/cm at 320 nm and by Bradford assay, respectively. […] For peptide displacement experiments, a solution of 2 μM antimycin A3 and 3 μM Bcl-2 was allowed to reach binding equilibrium at 4° C. prior to fluorescence measurements. […]"}, "[5]": {"tested_on": "mitochondria from cells over-expressing Bcl-xL (TABX2S cells)", "test": "JC-1 staining of isolated mitochondrial fractions", "assay_type": "biochemical, murine", "settings": "2 μg/ml", "experimental": "Briefly, at 15 and 30 minutes, 5×10^5 cells were washed, trypsinized and resuspended in 1 ml of growth media. Each sample was stained with 10 μg/ml of JC-1 prepared in DMSO. After 10 minutes of incubation at 37° C., cells were transferred to ice and analysis was performed using a FACScan flow cytometer (Becton Dickinson). The excitation wavelength was 488 nm whereas measurement was performed at 520 and 585 nm for green and red fluorescence, respectively. Green and red fluorescence were measured on FL1 and FL2 channels, respectively. A minimum of 10,000 cells per sample were analyzed. Comparisons were made based on the results of at least three experiments.\nIsolated mitochondria were loaded with JC-1 prior to treatment, and mitochondrial labeling was determined using FACS. […] Antimycin A-treated mitochondria with high levels of Bcl-xL had lower levels of JC-1 staining than parallel samples treated with CCCP. Uncoupled mitochondria still retain a significant Donnan potential because of trapped anionic species and it is likely that antimycin-induced PT and/or swelling of mitochondria led to a further reduction of this residual potential.\nAs observed for the parent compound, antimycin A3, mitochondria with normal levels of Bcl-xL expression were not affected by the 2-methoxy analog."}, "Cellular O2 consumption": {"test": "Cellular O2 consumption", "assay_type": "cell-based", "settings": "compared to antimycin A3"}, "Bcl-xL(ΔC) WT": {"biological_target": "T2, Bcl-xL(ΔC) WT (Homo sapiens, UniProt Q07817)", "T2 construct": "inferred from pET22b(+) NdeI/XhoI cloning and nickel-NTA purification) (C); made in house; host or cells: Escherichia coli BL21(DE3) carrying pUB520", "T2 sequence (Q07817 1-211 limits assumed, stated change not applied)": "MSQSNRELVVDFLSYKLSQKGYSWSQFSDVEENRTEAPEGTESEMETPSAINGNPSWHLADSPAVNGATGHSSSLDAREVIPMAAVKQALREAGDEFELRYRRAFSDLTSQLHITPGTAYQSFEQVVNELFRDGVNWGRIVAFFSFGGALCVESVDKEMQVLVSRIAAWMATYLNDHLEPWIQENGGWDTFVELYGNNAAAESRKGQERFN", "test": "Pore assay, calcein release from large unilamellar vesicles", "assay_type": "biochemical", "experimental": "Large unilamellar vesicles composed of 60% dioleoylphophatidylcholine and 40% dioleoylphosphatidylglycerol were prepared by the extrusion method of Mayer et al., supra. Lipid stocks, in chloroform, were mixed and dried under a stream of nitrogen gas. The lipid was resuspended by vortexing for 30 min in a solution of 40 mM calcein (Molecular Probes), 25 mM KCl, and 10 mM KOAc, pH 5.0. After 10 freeze-thaw cycles, the lipid suspension was extruded through two 0.1 μm pore diameter Nucleopore filters. Non-entrapped dye was removed by passage over a Sephadex G10 column (Amersham Biosciences). Lipid concentration was measured using the ammonium ferrothiocyanate method (Stewart, Anal. Biochem. 104:10-14, 1980).\nFor pore assays, recombinant truncated Bcl-2 family protein or mutant protein (Bcl-xL(ΔC)) (500 nM) was added to large unilamellar vesicles (60 μM lipid concentration) in 100 mM KCl, 10 mM KOAc, pH 5.0, and fluorescence measured (490 nm excitation, 520 nm emission) with a Fluoromax-3 spectrophotometer. Peptides of the BH3 domain were incubated with the Bcl-xL(ΔC) 5 min prior to mixing with liposomes. AA1 was added to liposomes 1 min before adding the Bcl-xL(ΔC) protein. Samples for kinetic assays were analyzed in a thermostatted cuvette at 37° C. with constant stirring. Dose responses were measured in black quartz microplates (Hellma) at room temperature. Calcein release was expressed as percentage of maximum release with detergent lysis (0.1% Triton X-100)."}}, "note": "Like-named read-outs stand apart in the source and are kept apart here."}
{"smiles": "C=C(C)[C@H]1Cc2c(ccc3c2O[C@@H]2COc4cc(OC)c(OC)cc4[C@@H]2C3=O)O1", "note": "[rotenone]", "values": [{"measurement": "difference in sensitivity of TABX2S and TABX1A cell lines", "setting": "[1]", "result": "no significant differences"}, {"measurement": "cell killing", "setting": "[2]; 0.5-2.5 mg/ml", "result": "none of the myeloma cell lines were killed"}]}
{"smiles": "CC(C)[C@@H]1NC(=O)[C@H](C)OC(=O)[C@@H](C(C)C)NC(=O)[C@@H](C(C)C)OC(=O)[C@H](C(C)C)NC(=O)[C@H](C)OC(=O)[C@@H](C(C)C)NC(=O)[C@@H](C(C)C)OC(=O)[C@H](C(C)C)NC(=O)[C@H](C)OC(=O)[C@@H](C(C)C)NC(=O)[C@@H](C(C)C)OC1=O", "note": "[valinomycin]", "values": [{"measurement": "difference in sensitivity of TABX2S and TABX1A cell lines", "setting": "[1]", "result": "no significant differences"}]}
{"smiles": "CC[C@H]1/C=C/C=C/C[C@@H](C)[C@H](O)[C@@](C)(O)C(=O)[C@@H](C)[C@H](O)[C@@H](C)C(=O)[C@@H](C)[C@H](O)[C@@H](C)/C=C/C(=O)O[C@@H]2[C@H](C)[C@H](CC1)O[C@]1(CC[C@H](C)[C@H](C[C@@H](C)O)O1)[C@H]2C", "note": "[oligomycin]", "values": [{"measurement": "difference in sensitivity of TABX2S and TABX1A cell lines", "setting": "[1]", "result": "no significant differences"}, {"measurement": "cell killing", "setting": "[2]; 2-10 mg/ml", "result": "Only H929 cells were killed"}]}
{"smiles": "COc1cccc2c1C(=O)c1c(O)c3c(c(O)c1C2=O)C[C@@](O)(C(=O)CO)C[C@@H]3O[C@H]1C[C@H](N)[C@H](O)[C@H](C)O1", "note": "[doxorubicin]", "values": [{"measurement": "viability at 5 µM", "setting": "in vitro", "result": 88, "unit": "%"}, {"measurement": "viability at 48 h, 5 µM", "setting": "[3]", "result": 50, "unit": "%"}, {"measurement": "viability at 48 h, 5 µM", "setting": "[3]; TABX1A cells (TAMH hepatocyte line with Bcl-xL antisense)", "result": 20, "unit": "%"}]}
{"smiles": "CCCC[C@H]1C(=O)OC(C)C(NC(=O)c2cccc(NC=O)c2OC)C(=O)O[C@@H](C)C1OC(=O)CC(C)C", "note": "(some centres unmarked) [2-methoxy antimycin A3, antimycin A3 methyl ether]", "values": [{"measurement": "cytotoxicity for cells that over-express Bcl-xL versus control cells", "setting": "[1]; TABX2S vs TAMH.neo and TABX1A", "result": "selective cytotoxicity"}, {"measurement": "displacement of antimycin A3 from Bcl-2 (antimycin A3 fluorescence)", "setting": "[4]", "result": "decreased exponentially"}, {"measurement": "mitochondrial depolarization (JC-1)", "setting": "[5]", "result": "strongly depolarized"}, {"measurement": "effect on cellular O2 consumption", "setting": "Cellular O2 consumption", "result": "negligible effect"}]}
{"smiles": "CC(C)C(C(=O)O)N1C(=O)/C(=C\\c2ccc(Br)cc2)SC1=S", "note": "(centres unmarked) [BH3I-1]", "values": [{"measurement": "effect on Bcl-xL pore-forming activity (FIG. 3A)", "setting": "Bcl-xL(ΔC) WT", "result": "no effect"}]}
{"smiles": "CCCCC1C(=O)OC(C)C(NC(=O)c2cccc(NC=O)c2OCC(=O)c2ccccc2)C(=O)OC(C)C1OC(=O)CC(C)C", "note": "(centres unmarked) [phenacyl ether antimycin A3]", "values": [{"measurement": "displacement of antimycin A3 from Bcl-2 (antimycin A3 fluorescence)", "setting": "[4]", "result": "did not displace"}]}
